Data: US20260174717A1 (Sumitomo Pharma America, Inc., priority 2022, published 2026)
Marks after values point to notes of the source that are not given here.

Legend:
Male Swiss mice [1] = test: mouse activity meter test (general locomotor activity); type: in vivo; conditions: 4 mg/kg, ip; positive assay control; 30 minutes after dosing, recorded for 30 minutes
Experimental: (§1) Thirty minutes later mice were individually placed in transparent plastic cages with 5 cm of sawdust on the floor and 25 marbles grouped in the center of the cage. The number of marbles covered by sawdust (2/3rd or more covered) was counted at the end of the 30 min test. Two days later, general locomotor activity was assessed in the activity meter test in the same animals. Mice were placed in an automated activity meter apparatus 30 minutes after dosing and the number of crossings recorded in 5-minute time bins for 30 minutes. Chlorpromazine (4 mg/kg, i.p.) was included as a positive assay control. […] Locomotor activity was analyzed by one-way ANOVA followed by Dunnett's post-hoc analysis. Effects of clobazam in the marble burying and activity meter tests were examined with the Mann-Whitney U test and unpaired student's t-test, respectively.

Male Swiss mice [2] = test: mouse marble burying test; type: in vivo; conditions: 8 mg/kg, ip; positive control; 30 min before 30 min test
Experimental: as §1

| Structure (SMILES) | Number of crossings (Mean ± SEM) (Male Swiss mice [1]) | Number of marbles buried (Mean ± SEM) (Male Swiss mice [2]) |
| --- | --- | --- |
| CN(C)CCCN1c2ccccc2Sc2ccc(Cl)cc21 [Chlorpromazine] | 3.6 ± 0.7^a |  |
| CN1C(=O)CC(=O)N(c2ccccc2)c2cc(Cl)ccc21 [Clobazam, clobazam] |  | 0.5 ± 0.3^a |
